The series can be described thus: in vitro. The conditions noted are these: human, hek293t cells.
Take `C=CC(=O)NC(C)c1nnnn1C1CC1` (stereo not shown) [1-M09, N-[1-(1-cyclopropyl-1H-1,2,3,4-tetrazol-5-yl)ethyl]prop-2-enamide]: the viability at 48 h, 25 µM turned out to be 82.7%.

For `CC(Cl)C(=O)NC(C)c1ccc2c(c1)CCCC2` (stereo not shown) [6-A07, 2-chloro-N-[1-(5,6,7,8-tetrahydronaphthalen-2-yl)ethyl]propanamide], the viability at 48 h, 25 µM turned out to be 93.1%.

On to `COc1ccc(C(=O)CCl)cc1Cl` [10-D10, 2-chloro-1-(3-chloro-4-methoxyphenyl)ethan-1-one], for which the viability at 48 h, 25 µM came out at 1.84%.

Consider `COc1ccc(C=C(C#N)C(N)=O)c(Cl)c1OC` [9-H14, 3-(2-chloro-3,4-dimethoxyphenyl)-2-cyanoprop-2-enamide], for which the viability at 48 h, 25 µM was found to be 105%.

Turning to `N#CC(=Cc1cc(F)ccc1F)C(=O)Nc1ccc(F)cc1F` [8-C10, 2-cyano-N-(2,4-difluorophenyl)-3-(2,5-difluorophenyl)prop-2-enamide], the viability at 48 h, 25 µM came out at 91.2%.

As to `CC(C)NC(=O)C(C#N)=Cc1ccc(F)cc1` [9-I09, 2-cyano-3-(4-fluorophenyl)-N-(propan-2-yl)prop-2-enamide], the viability at 48 h, 25 µM worked out at 119%.

`COCCNC(=O)C(C#N)=Cc1sccc1C` [9-M17, 2-cyano-N-(2-methoxyethyl)-3-(3-methylthiophen-2-yl)prop-2-enamide]: the viability at 48 h, 25 µM is 131%.

As to `CC(C)n1cc(C2=CCCN(C(=O)CCl)CC2)nn1` [5-F05, 2-chloro-1-{4-[1-(propan-2-yl)-1H-1,2,3-triazol-4-yl]-2,3,6,7-tetrahydro-1H-azepin-1-yl}ethan-1-one], the viability at 48 h, 25 µM is 1.75%.

For the compound `COc1ccc(NC(=O)C(C#N)=Cc2cccs2)cc1` [8-O14, 2-cyano-N-(4-methoxyphenyl)-3-(thiophen-2-yl)prop-2-enamide], the viability at 48 h, 25 µM was 75.7%.

`CC(Cl)C(=O)Nc1ccc(Cl)cc1F` (stereo not shown) [4-C14, 2-chloro-N-(4-chloro-2-fluorophenyl)propanamide]: the viability at 48 h, 25 µM was determined as 58.6%.

In the case of `C=CC(=O)NCc1ccc(-n2ccnc2)cc1` [1-M18, N-{[4-(1H-imidazol-1-yl)phenyl]methyl}prop-2-enamide], the viability at 48 h, 25 µM came to 90.9%.

`Cc1cc(C(=O)CCl)c(C)n1C(c1ccccc1)c1ccccc1` [10-I08, 2-chloro-1-[1-(diphenylmethyl)-2,5-dimethyl-1H-pyrrol-3-yl]ethan-1-one]: the viability at 48 h, 25 µM was 1.32%.

As to `O=C(CCl)N(Cc1nc(C2CCCCCC2)no1)C1CC1` [7-B16, 2-chloro-N-[(3-cycloheptyl-1,2,4-oxadiazol-5-yl)methyl]-N-cyclopropylacetamide], the viability at 48 h, 25 µM worked out at 0.667%.

`O=C(CCl)N1CCc2sccc2C1c1cccs1` (stereo not shown) [4-L20, 2-chloro-1-[4-(thiophen-2-yl)-4H,5H,6H,7H-thieno[3,2-c]pyridin-5-yl]ethan-1-one]: the viability at 48 h, 25 µM was -0.242%.

In the case of `C=CC(=O)NC1CCCN(Cc2ccccc2)C1=O` (stereo not shown) [2-L13, N-(1-benzyl-2-oxopiperidin-3-yl)prop-2-enamide], the viability at 48 h, 25 µM is 60.1%.

In the case of `CC(C)NC(=O)C(C#N)=Cc1cccc(Cl)c1Cl` [9-C07, 2-cyano-3-(2,3-dichlorophenyl)-N-(propan-2-yl)prop-2-enamide], the viability at 48 h, 25 µM was found to be 39.7%.

Turning to `C=CC(=O)NCCc1csc(C)n1` [1-D13, N-[2-(2-methyl-1,3-thiazol-4-yl)ethyl]prop-2-enamide], the viability at 48 h, 25 µM was 106%.

For `COc1cccc(NC(=O)C(C#N)=Cc2cccc(O)c2)c1` [8-P03, 2-cyano-3-(3-hydroxyphenyl)-N-(3-methoxyphenyl)prop-2-enamide], the viability at 48 h, 25 µM amounted to 120%.

For the compound `C=CC(=O)N1CCN(c2nccn(C)c2=O)CC1` [3-P20, 1-methyl-3-[4-(prop-2-enoyl)piperazin-1-yl]-1,2-dihydropyrazin-2-one], the viability at 48 h, 25 µM stood at 181%.

As to `Cc1cccc(Cc2cnc(NC(=O)C(C)Cl)s2)c1` (stereo not shown) [4-D19, 2-chloro-N-{5-[(3-methylphenyl)methyl]-1,3-thiazol-2-yl}propanamide], the viability at 48 h, 25 µM was found to be 74.1%.

With `C=CC(=O)Nc1ccc(N(C)S(=O)(=O)CC)cc1` [3-H06, N-[4-(N-methylethanesulfonamido)phenyl]prop-2-enamide], the viability at 48 h, 25 µM stood at 87.8%.

Turning to `O=C(CCl)NCCc1cccs1` [5-L09, 2-chloro-N-[2-(thiophen-2-yl)ethyl]acetamide], the viability at 48 h, 25 µM was found to be 90.7%.

Regarding `CC(Cl)C(=O)NC(C)c1nc(Cc2ccccc2)no1` (stereo not shown) [7-B19, N-[1-(3-benzyl-1,2,4-oxadiazol-5-yl)ethyl]-2-chloropropanamide], the viability at 48 h, 25 µM is 79.9%.

Regarding `O=C(CCl)c1ccc(CC(=O)N2CCOCC2)s1` [10-H06, 2-chloro-1-{5-[2-(morpholin-4-yl)-2-oxoethyl]thiophen-2-yl}ethan-1-one], the viability at 48 h, 25 µM is 71.7%.

Regarding `Cc1nc2ccccc2n(CCCN(C)C(=O)CCl)c1=O` [6-D04, 2-chloro-N-methyl-N-[3-(3-methyl-2-oxo-1,2-dihydroquinoxalin-1-yl)propyl]acetamide], the viability at 48 h, 25 µM was 1.73%.

Take `Cc1cc(C=C(C#N)C(=O)Nc2cn[nH]c2)c(C)n1-c1ccc(F)cc1` [9-N07, 2-cyano-3-[1-(4-fluorophenyl)-2,5-dimethyl-1H-pyrrol-3-yl]-N-(1H-pyrazol-4-yl)prop-2-enamide]: the viability at 48 h, 25 µM is 95.1%.

For `Cc1ccc(Oc2ccc(Cl)cc2NC(=O)CCl)cc1` [4-A21, 2-chloro-N-[5-chloro-2-(4-methylphenoxy)phenyl]acetamide], the viability at 48 h, 25 µM amounted to 98.6%.

Take `O=C(CCl)NCCc1cccc2c1Oc1ccccc1O2` [7-J18, 2-chloro-N-[2-(oxanthren-1-yl)ethyl]acetamide]: the viability at 48 h, 25 µM stood at 0.958%.

Turning to `C=CC(=O)N(CC)CC(=O)N1CCNC(=O)CC1c1ccccc1` (stereo not shown) [3-E21, N-ethyl-N-[2-oxo-2-(5-oxo-7-phenyl-1,4-diazepan-1-yl)ethyl]prop-2-enamide], the viability at 48 h, 25 µM was found to be 33.1%.

With `CC(=O)N1CCC(N(Cc2cncs2)C(=O)C(C)Cl)CC1` (stereo not shown) [5-H21, N-(1-acetylpiperidin-4-yl)-2-chloro-N-[(1,3-thiazol-5-yl)methyl]propanamide], the viability at 48 h, 25 µM was 119%.

Turning to `CC(Cl)C(=O)Nc1nc2ccccc2s1` (stereo not shown) [5-K05, N-(1,3-benzothiazol-2-yl)-2-chloropropanamide], the viability at 48 h, 25 µM amounted to 59.9%.

As for `CC1=C(C#N)C(=O)N(C2CCS(=O)(=O)C2)C(=O)C1=Cc1ccco1` (stereo not shown) [9-O13, 1-(1,1-dioxo-1lambda6-thiolan-3-yl)-5-[(furan-2-yl)methylidene]-4-methyl-2,6-dioxo-1,2,5,6-tetrahydropyridine-3-carbonitrile], the viability at 48 h, 25 µM stood at 99%.

Consider `CC1CC(NC(=O)CCl)C(=O)N1c1cnn(C)c1` (stereo not shown) [5-O08, 2-chloro-N-[5-methyl-1-(1-methyl-1H-pyrazol-4-yl)-2-oxopyrrolidin-3-yl]acetamide], for which the viability at 48 h, 25 µM was determined as 100%.

Regarding `N#CC(=CC(Cl)=Cc1ccccc1)C(=O)NC1CCCCC1` [8-D17, 4-chloro-2-cyano-N-cyclohexyl-5-phenylpenta-2,4-dienamide], the viability at 48 h, 25 µM is 7.44%.

As to `C=CC(=O)NCCS(=O)(=O)N1CCOCC1` [2-E14, N-[2-(morpholine-4-sulfonyl)ethyl]prop-2-enamide], the viability at 48 h, 25 µM was found to be 94.6%.

Consider `C=CC(=O)NCc1cc(-c2ccccc2OC)no1` [2-C18, N-{[3-(2-methoxyphenyl)-1,2-oxazol-5-yl]methyl}prop-2-enamide], for which the viability at 48 h, 25 µM worked out at 72.8%.

For the compound `CC(c1cccs1)N(C)C(=O)CCl` (stereo not shown) [6-M21, 2-chloro-N-methyl-N-[1-(thiophen-2-yl)ethyl]acetamide], the viability at 48 h, 25 µM was 0.384%.

Consider `C=CC(=O)NCC1CCC2(CCCC2)O1` (stereo not shown) [1-A06, N-({1-oxaspiro[4.4]nonan-2-yl}methyl)prop-2-enamide], for which the viability at 48 h, 25 µM came to 106%.

As to `CC1Cc2cc(C(=O)CCl)ccc2N1S(C)(=O)=O` (stereo not shown) [10-A04, 2-chloro-1-(1-methanesulfonyl-2-methyl-2,3-dihydro-1H-indol-5-yl)ethan-1-one], the viability at 48 h, 25 µM is 0.28%.

In the case of `N#Cc1cc([N+](=O)[O-])ccc1NC(=O)CCl` [4-O09, 2-chloro-N-(2-cyano-4-nitrophenyl)acetamide], the viability at 48 h, 25 µM is 1.1%.

For the compound `COc1cccc(CN(C(=O)CCl)C23CC4CC(CC(C4)C2)C3)c1` [5-E05, N-(adamantan-1-yl)-2-chloro-N-[(3-methoxyphenyl)methyl]acetamide], the viability at 48 h, 25 µM turned out to be 0.151%.

For the compound `C=CC(=O)Nc1ccc(C(=O)N2CCCCC2c2n[nH]c(C)n2)cc1` (stereo not shown) [3-E13, N-{4-[2-(5-methyl-1H-1,2,4-triazol-3-yl)piperidine-1-carbonyl]phenyl}prop-2-enamide], the viability at 48 h, 25 µM amounted to 34.9%.

Consider `C=CC(=O)N1CCC(C(=O)N[C@H]2CC[C@@H]2O)(c2ccccc2)CC1` (racemic) [3-G08, rac-N-[(1R,2R)-2-hydroxycyclobutyl]-4-phenyl-1-(prop-2-enoyl)piperidine-4-carboxamide], for which the viability at 48 h, 25 µM came out at 104%.

With `N#CC(=Cc1cccc(O)c1)C(=O)Nc1ccc(N2CCOCC2)cc1` [8-I14, 2-cyano-3-(3-hydroxyphenyl)-N-[4-(morpholin-4-yl)phenyl]prop-2-enamide], the viability at 48 h, 25 µM was determined as 82.5%.

Turning to `COc1ccccc1C=CC=C(C#N)C(=O)Nc1ccccn1` [9-L17, 2-cyano-5-(2-methoxyphenyl)-N-(pyridin-2-yl)penta-2,4-dienamide], the viability at 48 h, 25 µM was 91.4%.

In the case of `COc1ccc(C=C(C#N)C(=O)Nc2ccc(C)c(C)c2)cc1` [8-I05, 2-cyano-N-(3,4-dimethylphenyl)-3-(4-methoxyphenyl)prop-2-enamide], the viability at 48 h, 25 µM is 87.4%.

On to `CCOc1ccc(C=C(C#N)C(=O)Nc2nccs2)cc1` [9-C06, 2-cyano-3-(4-ethoxyphenyl)-N-(1,3-thiazol-2-yl)prop-2-enamide], for which the viability at 48 h, 25 µM is 94.3%.

As to `O=C(CCl)Nc1ccc(S(=O)(=O)N2CCCCC2)cc1` [4-H06, 2-chloro-N-[4-(piperidine-1-sulfonyl)phenyl]acetamide], the viability at 48 h, 25 µM is 0.963%.

Take `C=CC(=O)N1CCC(C(=O)Nc2nnc(CC)s2)CC1` [2-M10, N-(5-ethyl-1,3,4-thiadiazol-2-yl)-1-(prop-2-enoyl)piperidine-4-carboxamide]: the viability at 48 h, 25 µM is 98.8%.

Source of the values: publication PMC11995724, “Antibiotic target discovery by integrated phenotypic and activity-based profiling of electrophilic fragments” (Cell chemical biology, 2025).
